From US20220104495A1, “THEOPHYLLINE DERIVATIVES WITH NEMATOCIDAL ACTIVITY, THEIR AGRONOMIC COMPOSITIONS AND RELATIVE USE” (ISAGRO S.p.A., priority 2019, published 2022)

Test system: Meloidogyne sp.
Experiment: Determination of the nematocidal activity against Meloidogyne sp. (potted tomato, greenhouse)
Format: in vivo
Details: for GALL INDEX (scale 0-10) / PLANT DEVELOPMENT (fresh weight g) / INFESTED ROOT % / reduction in parasitosis at the root level (in words): tomatoes, cv Marmande; for GALL INDEX (scale 0-10) / PLANT DEVELOPMENT (fresh weight g) / INFESTED ROOT %: dose 4,000 g/hectare, survey 30 days after transplantation; for GALL INDEX (scale 0-10): Bridge-Page scale, 0 = 0% of root affected, 10 = 100% infested root, infested blank 7; for PLANT DEVELOPMENT (fresh weight g): infested blank 13; for INFESTED ROOT %: infested blank 70; for reduction in parasitosis at the root level (in words): 4,000 g/hectare, 30 days, comment on Table 6
Procedure: The tests aimed at testing the nematocidal activity of the product under examination are carried out using inocula taken from a cultivation of Meloidogyne sp. maintained on potted tomato and cucumber plants and grown in a greenhouse.
In order to carry out the experiments, portions of roots having a large number of galls and soil are taken from the infested pots, in which larvae are present starting from the second stage of age.
New pots having a diameter of 15 cm are half-filled with sterile earth. The portions of infested roots, previously cleaned, are placed on it to be able to correctly assess the degree of infestation and ensure that each pot contains the same nematic charge. 200-300 g of infested soil are then added, which are covered with a thin layer of sterile earth.
The treatment is carried out by pouring 100 ml of hydroacetonic solution onto the surface of the soil in which the product to be tested has been dissolved to obtain a concentration ranging from 70 to 100 ppm.
Tomato or cucumber seedlings at the stage of two or three actual leaves are transplanted in the pots thus prepared, after one or seven days from the application. Different cultivars of tomatoes (Microtom, Marmande) or cucumbers (Lungo della Cina) are used, having a different sensitivity to the parasite and different times of growth. In particular, for estimating the final production, a variety of ornamental tomatoes (cv Microtom) is used, whose seedlings are small in size and able to reach the maturity of the fruit in about two months in pots and under greenhouse conditions.
The containment capacity of the parasite is detected, 30 and 60 days after the transplantation, considering the development of the plant (whose fresh weight is detected) and the presence of galls on the roots.
This is estimated using both the infestation scale proposed by Bridge-Page (Tropical Pest Management 26 (3): 296-298, September 1980), according to which the value zero corresponds to 0% of root affected and the value 10 corresponds to 100% of infested root, and also considering the percentage of root mass affected.
Table 6 indicates the results relating to the effectiveness of Compounds Nr.

Row | Compound | GALL INDEX (scale 0-10) | PLANT DEVELOPMENT (fresh weight g) [g] | INFESTED ROOT % [%] | reduction in parasitosis at the root level (in words) | nematocidal activity of caffeine as verified by the Applicant (in words) (attack of the parasite and formation of galls on the root system, conditions not given)
1 | Cn1c(=O)c2c(ncn2CC[S+]([O-])CCC(F)=C(F)F)n(C)c1=O (centres unmarked) [Comp. Nr. 8, 1,3-dimethyl-7-[2-(3,4,4-trifluorobut-3-ene-1-sulfinyl)ethyl]-3,7-dihydro-1H-purin-2,6-dione] | 5 | 17 | 50 | – | –
2 | Cn1c(=O)c2c(ncn2CCS(=O)(=O)CCC(F)=C(F)F)n(C)c1=O [Comp. Nr. 11, 1,3-dimethyl-7-[2-(3,4,4-trifluorobut-3-ene-1-sulfonyl)ethyl]-3,7-dihydro-1H-purin-2,6-dione] | 4.5 | 16 | 45 | decisive reduction in parasitosis at the root level | –
3 | Cn1c(=O)c2c(ncn2C)n(C)c1=O [Caffeine, caffeine, reference compound] | – | 12 | 70 | – | unsatisfactory from the point of view of nematocidal activity
4 | Cn1c(=O)c2c(ncn2CC(=O)OCCC(F)=C(F)F)n(C)c1=O [Comp. Nr. 21, 3,4,4-trifluorobut-3-en-1-yl (1,3-dimethyl-2,6-dioxo-1,2,3,6-tetrahydro-7H-purin-7-yl) acetate] | 2 | 20 | 20 | decisive reduction in parasitosis at the root level | –
